Laboratory results as given in US5840895A, “Triazole intermediates for tricyclic benzazepine and benzothiazepine derivatives” (Meiji Seika Kabushiki Kaisha, priority 1993, dated 1998).
Read-outs that look alike come from different tables or passages of the source.

What was measured:
[1] = tested on: histamine releasing reaction; assay: Test of suppressing histamine releasing reaction (abdominal cavity cells of rats sensitised with anti-DNP-As serum, stimulated with DNP-As); assay type: cell-based, rat (male Wister); details: Rattus norvegicus; cells 10^5 cell/ml stimulated with 1 μg/ml DNP-As; test compounds 10^-5 -10^-10 M; read-out: IC50 (suppression of histamine releasing reaction)
Experimental: Test of suppressing histamine releasing reaction
Rat anti-dinitrophenylated ascaris protein (referred to hereinafter as DNP-As) serum was prepared according to the method described by Tada, T. and Okumura, K., J. Immun., 106 (4), 1971. Briefly, 1×10^10 of inviable pertussis and 1 mg of DNP-As were administered subcutaneously to the paw of female Brown Norway rats having a body weight of 200 g. After five days, 0.5 mg of DNP-As was further administered intramuscularly to the rear of the animals. Blood samples were taken after three days of the administration to prepare anti-serum.
A 1 ml portion of the serum diluted four times with physiological saline was administered intraperitoneally to male Wister rats. After two days, abdominal cavity was rinsed with phosphate buffer to recover the cells within the abdominal cavity. After the cell concentration was adjusted to 10^5 cell/ml, the cells were stimulated with 1 μg/ml of DNP-As. The amount of histamine released into the supernatant was measured according to the method described by Shore, P. A., Burkhalter, A. H. and Chon, V. H. Jr., J. Pharm. Exp. Ther., 127, 182-186 (1959).
A dose for suppressing 50% of the histamine releasing reaction, i.e., IC50 value, was calculated from the amounts of histamine released in the group treated with the test compounds in the molar concentrations (M) of 10^-5 -10^-10 and in the control group. The IC50 value as the suppressing effect of the drugs is shown in Table 6 with the IC50 value of sodium chromoglycic acid selected as the control compound.

[2] = tested on: allergic edema reaction at paw; assay: Test for suppressing immediate and delayed allergic reaction (allergic edema reaction at paw, DNP-OA); assay type: in vivo, rat (male Wister); details: Rattus norvegicus, oral; for inhibition in vivo at 30 mg/kg: dose: 30 mg/kg of body weight
Experimental: Test for suppressing immediate and delayed allergic reaction
1×10^10 of inviable pertussis and 1 mg of dinitrophenylated ovalbumin (DNP-OA) were administered subcutaneously to the three paws except the right hind paw of male Wister rats having a body weight of 200 g. After 10 days, 5 μg of DNP-OA was further administered subcutaneously to the right hind paw of the animals to induce the allergic edema reaction at paw. The allergy suppressing effect of the test compounds was examined with reference to the edema volumes after 30 minutes and 8 hours of the induction of the allergic reaction as the immediate and delayed allergic reactions, respectively.
[…] On the other hand, only a solution of 0.25% Tween 80 was orally administered to rats as the untreated control, and 100 mg/kg of sodium chromoglycate subcutaneously or orally to rats as the positive control.
The rate of suppressing the allergic edema reaction at paw was calculated from the following equation.
Suppression rate of the allergic edema reaction at paw
A is an average edema volume in the control, and
B is an average edema volume in the drug treated group.

[3] = 0.5 h, 30 minutes after induction, read-out: Suppressing Rate, Immediate Reaction
[4] = 8 hours after induction, read-out: Suppressing Rate, Slow reaction
[5] = 0.5 h, edema volume 30 minutes after induction, read-out: Suppressing Rate, Immediate Reaction
[6] = edema volume 8 hours after induction, read-out: Suppressing Rate, Slow reaction

SMILES | IC50 [1] [nM] | other results
Cc1cc2[nH]c(=O)c3nn[nH]c3c(=O)c2cc1C [Example 44, 7,8-dimethyl-4(5H),10-dioxo-1H-1,2,3-triazolo[4,5-c][l]benzazepine] | 8.5 | 
Cc1ccc2c(=O)c3[nH]nnc3c(=O)[nH]c2c1 [Example 4, 7-methyl-4(5H),10-dioxo-1H-1,2,3-triazolo[4,5-c][l]benzazepine] | 2.3 | inhibition in vivo at 30 mg/kg [2, 3]: 70.5%; inhibition in vivo at 30 mg/kg [2, 4]: 57.7%
COC(=O)/C(C)=C/c1ccc2c(=O)c3[nH]nnc3c(=O)[nH]c2c1 [Example 50] | 3.6 | 
COc1ccccc1C(=O)COc1ccc2[nH]c(=O)c3nn[nH]c3c(=O)c2c1 [Example 87, 8-(2-methoxyphenacyloxy)-4(5H),10-dioxo-1H-1,2,3-triazolo[4,5-c][l]benzazepine] | 7.4 | 
O=c1[nH]c2cc(CNS(=O)(=O)c3ccccc3)ccc2c(=O)c2[nH]nnc12 [Example 69, 7-(N-benzenesulfonylaminomethyl)-4(5H),10-dioxo-1H-1,2,3-triazolo [4,5-c][l]benzazepine] | 3.5 | inhibition in vivo at 10 mg/kg [2, 5]: 50%; inhibition in vivo at 10 mg/kg [2, 6]: 41%
COC(=O)/C=C/c1ccc2c(=O)c3[nH]nnc3c(=O)[nH]c2c1 [Example 16, 7-(2-methoxycarbonyl-(E)-ethenyl)-4(5H),10-dioxo-1H-1,2,3-triazolo[4,5-c][l]benzazepine] | 2.6 | inhibition in vivo at 10 mg/kg [2, 5]: 79%; inhibition in vivo at 10 mg/kg [2, 6]: 80%
O=c1[nH]c2cc(OCCOc3ccccc3)ccc2c(=O)c2[nH]nnc12 [Example 78, 4(5H),10-dioxo-7-(2-phenoxyethoxy)-1H-1,2,3-triazolo[4,5-c][l]benzazepine] | 3.6 | 
O=c1[nH]c2cc(OCC(O)CCc3ccccc3)ccc2c(=O)c2[nH]nnc12 (centres unmarked) [Example 80, 7-(2-hydroxy-4-phenylbutoxy)-4(5H),10-dioxo-1H-1,2,3-triazolo[4,5-c][l]benzazepine] | 4.7 | 
N#CC=Cc1ccc2c(=O)c3[nH]nnc3c(=O)[nH]c2c1 (mixture of isomers) [Example 19, 3:1 mixture of 7-(2-cyano-(E)-ethenyl)-4(5H),10-dioxo-1H-1,2,3-triazolo[4,5-c][l]benzazepine and 7-(2-cyano-(Z)-ethenyl)-4(5H),10-dioxo-1H-1,2,3-triazolo[4,5-c][l]benzazepine] | 4.3 | 
O=c1[nH]c2cc(OCCCOc3ccccc3)ccc2c(=O)c2[nH]nnc12 [Example 75, 4(5H),10-dioxo-7-(3-phenoxypropoxy)-IH-1,2,3-triazolo[4,5-c][l]benzazepine] | 4 | 
O=c1[nH]c2ccccc2c(=O)c2[nH]nnc12 [Example 1, 4(5H),10-dioxo-1H-1,2,3-triazolo[4,5-c][l]benzazepine] | 12 | inhibition in vivo at 30 mg/kg [2, 3]: 56.4%; inhibition in vivo at 30 mg/kg [2, 4]: 24.5%
O=C(/C=C/c1ccc2c(=O)c3[nH]nnc3c(=O)[nH]c2c1)Nc1nn[nH]n1 [Example 56, 4(5H),10-dioxo-7-(2-(N-(1H-tetrazol-5-yl)carbamoyl)-(E)-ethenyl)-1H-1,2,3-triazolo[4,5-c][l]benzazepine] | 4.7 | 
COc1ccccc1C(=O)COc1ccc2c(=O)c3[nH]nnc3c(=O)[nH]c2c1 [Example 73, 7-(2-methoxyphenacyloxy)-4(5H),10-dioxo-1H-1,2,3-triazolo[4,5-c][l]benzazepine] | 4.8 | 
O=C(/C=C/c1ccc2c(=O)c3[nH]nnc3c(=O)[nH]c2c1)NCc1ccccc1 [Example 53, 7-(2-(N-benzylcarbamoyl)-(E)-ethenyl)-4(5H),10-dioxo-1H-1,2,3-triazolo[4,5-c][l]benzazepine] | 4.4 | 
CS(=O)(=O)NCc1ccc2c(=O)c3[nH]nnc3c(=O)[nH]c2c1 [Example 68, 7-(N-methanesulfonylaminomethyl)-4(5H),10-dioxo-1H-1,2,3-triazolo[4,5-c][l]benzazepine] | 3.5 | 
Cc1ccc2[nH]c(=O)c3nn[nH]c3c(=O)c2c1 [Example 5, 8-methyl-4(5H),10-dioxo-1H-1,2,3-triazolo[4,5-c][l]benzazepine] | 13 | inhibition in vivo at 30 mg/kg [2, 3]: 48.7%; inhibition in vivo at 30 mg/kg [2, 4]: 28.9%
COc1ccc(C(=O)/C=C/c2ccc3c(=O)c4[nH]nnc4c(=O)[nH]c3c2)cc1 [Example 51, 7-(2-(4-methoxybenzoyl)-(E)-ethenyl)-4(5H1), 10-dioxo-1H-1,2,3-triazolo[4,5-c][l]benzazepine] | 7.8 | 
Cc1ccc2c(=O)c3[nH]nnc3c(=O)[nH]c2c1 [Example 46, 7-methyl-4(5H),10-dioxo-1H-1,2,3-triazolo[4,5-c][l]benzazepine] |  | inhibition in vivo at 10 mg/kg [2, 5]: 64%; inhibition in vivo at 10 mg/kg [2, 6]: 68%
CON=Cc1ccc2c(=O)c3[nH]nnc3c(=O)[nH]c2c1 [Example 58, 7-(methoxyimino)methyl-4(5H),10-dioxo-1H-1,2,3-triazolo[4,5-c][l]benzazepine] | 8.1 | 
O=C(CCc1ccccc1)COc1ccc2c(=O)c3[nH]nnc3c(=O)[nH]c2c1 [Example 79, 4(5H),10-dioxo-7-(2-oxo-4-phenylbutoxy)-1H-1,2,3-triazolo[4,5-c][l]benzazepine] | 3.6 | 
COc1ccc(C(=O)COc2ccc3c(=O)c4[nH]nnc4c(=O)[nH]c3c2)cc1 [Example 37, 7-(4-methoxyphenacyloxy)-4(5H),10-dioxo-1H-1,2,3-triazolo[4,5-c][l]benzazepine] | 7.5 | 
O=c1[nH]c2cc(OCCCN3CCN(Cc4ccccc4)CC3)ccc2c(=O)c2[nH]nnc12 [Example 81, 7-(3-(4-benzyl-1-piperazinyl)propoxy)-4(5H),10-dioxo-1H-1,2,3-triazolo[4,5-c][l]benzazepine] | 3.8 | 
COC(=O)CCc1ccc2c(=O)c3[nH]nnc3c(=O)[nH]c2c1 [Example 17, 7-(2-methoxycarbonylethyl)-4(5H),10-dioxo-1H-1,2,3-triazolo[4,5-c][l]benzazepine] | 4.1 | 
COc1cc2c(=O)c3[nH]nnc3c(=O)[nH]c2cc1C [Example 45, 8-methoxy-7-methyl-4(5H),10-dioxo-1H-1,2,3-triazolo[4,5-c][l]benzazepine] | 2.9 | 
O=c1[nH]c2cc(CNS(=O)(=O)c3ccc(F)cc3)ccc2c(=O)c2[nH]nnc12 [Example 70, 7-(N-(4-fluorobenzenesulfonyl)aminomethyl)-4(5H),10-dioxo-1H-1,2,3-triazolo[4,5-c][l]benzazepine] | 6.1 | 
O=C(COc1ccc2c(=O)c3[nH]nnc3c(=O)[nH]c2c1)c1ccc(Cl)cc1 [Example 74, 7-(4-chlorophenacyloxy)-4(5H),10-dioxo-1H-1,2,3-triazolo[4,5-c][l]benzazepine] | 4.5 | 
O=C(O)/C=C/c1ccc2c(=O)c3[nH]nnc3c(=O)[nH]c2c1 [Example 18] | 4.5 | 
CC(=O)COc1ccc2c(=O)c3[nH]nnc3c(=O)[nH]c2c1 [Example 34, 7-acetonyloxy-4(5H),10-dioxo-1H-1,2,3-triazolo[4,5-c][l]benzazepine] | 3.5 | 
O=C(/C=C/c1ccc2c(=O)c3[nH]nnc3c(=O)[nH]c2c1)NCc1ccccn1 [Example 54, 4(5H),10-dioxo-7-(2-(N-(2-pyridylmethyl)carbamoyl)-(E)-ethenyl)-1H-1,2,3-triazolo[4,5-c][l]benzazepine] | 3.6 | 
O=c1[nH]c2cc(C=NO)ccc2c(=O)c2[nH]nnc12 [Example 57, 7-(hydroxyimino)methyl-4(5H),10-dioxo-1H-1,2,3-triazolo[4,5-c][l]benzazepine] | 2.4 | 
